We go through six molecules from patent US10723741B1, “DNA polymerase IIIC inhibitors and use thereof” (Acurx Pharmaceuticals, LLC, priority 2018, dated 2020).

The term MIC denotes the lowest concentration that inhibits growth of the organism.

Holding throughout (assay type): cell-based
Assay [1] deals with Staphylococcus aureus NRS384 (MRSA). Kind of assay: Broth microdilution MIC, S. aureus NRS384 (MRSA). The settings on record: Staphylococcus aureus; broth microdilution, 37° C., 20 hours; read-out: MIC NRS 384 (MRSA). The method in brief: (§1)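 Two-fold dilutions from 64 to 0.0625 μg/ml final, 1% DMSO, were inoculated at ~5.0×10^5 cfu/ml in the strain's test medium and kept 20 h at 37 °C in ambient atmosphere. Colonies were grown on MHA, with S. pneumoniae on blood agar under 5% CO2.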

The subject of assay [2] is Bacillus subtilis ATCC 6633. Kind of assay: Broth microdilution MIC, B. subtilis ATCC 6633. To be noted: ATCC6633, broth microdilution, 37° C., 20 hours, read-out: MIC B. subtilis ATCC 6633. In outline: as §1
On the technique in general: Broth dilution looks for growth in wells or tubes with falling amounts of substance.

Assay [3] relates to Staphylococcus aureus ATCC 29213 (MSSA). Kind of assay: Broth microdilution MIC, S. aureus ATCC 29213 (MSSA). The settings on record: broth microdilution, 37° C., 20 hours, read-out: MIC S. aureus ATCC 29213 (MSSA). In outline:
as §1

The test system of assay [4] is Streptococcus pneumoniae ATCC 49619. Kind of assay: Broth microdilution MIC, S. pneumoniae ATCC 49619. To be noted: ATCC49619, broth microdilution, 37° C., 20 hours, read-out: MIC S. pneumoniae ATCC 49619. In outline: as §1
For assay [5], the system named is Enterococcus faecium ATCC 700221 (VRE). Kind of assay: Broth microdilution MIC, E. faecium ATCC 700221 (VRE). To be noted: Enterococcus faecium; broth microdilution, 37° C., 20 hours; read-out: MIC E. faecium ATCC 700221 (VRE). The method in brief: as §1
Assay [6] has as its system Enterococcus faecalis ATCC 29212. Kind of assay: Broth microdilution MIC, E. faecalis ATCC 29212. The settings on record: ATCC29212, broth microdilution, 37° C., 20 hours, read-out: MIC E. faecalis ATCC 29212. The method in brief: as §1
Assay [7] concerns Escherichia coli ATCC 25922. Kind of assay: Broth microdilution MIC, E. coli ATCC 25922 (MHIIB w & w/o 4 mM EDTA). To be noted: broth microdilution, 37° C., 20 hours; for MIC: Escherichia coli, ATCC25922, without EDTA, read-out: MIC E. coli ATCC 25922; for MIC E. coli ATCC 25922 + 4 mM EDTA: with 4 mM EDTA. The method in brief: as §1

In brackets after ≈: the same amount, converted by molar mass.

For the molecule `O=c1[nH]c(NCc2ccc(Cl)c(Cl)c2)nc2cnn(CC(CO)N3CCOCC3)c12` (stereo not drawn) [Compound 288, 5-[(3,4-dichlorophenyl)methylamino]-1-(3-hydroxy-2-morpholino-propyl)-6H-pyrazolo[4,3-d]pyrimidin-7-one], the MIC in assay [1] was 32 µg/mL (≈ 70.6 µM); in assay [2], 8 µg/mL (≈ 17.6 µM); in assay [3], 32 µg/mL (≈ 70.6 µM); in assay [4], 16 µg/mL (≈ 35.3 µM); in assay [5] it was 16 µg/mL (≈ 35.3 µM); in assay [6], 32 µg/mL (≈ 70.6 µM). Moreover, in assay [7], the MIC was greater than 64 µg/mL. For the same molecule, the “MIC E. coli ATCC 25922 + 4 mM EDTA” value in assay [7] is greater than 64 µg/mL.
With `O=c1[nH]c(NCc2ccc(Cl)c(Cl)c2)nc2cnn(CC(O)CN3CCOCC3)c12` (stereo not drawn) [Compound 289, 5-[(3,4-dichlorophenyl)methylamino]-1-(2-hydroxy-3-morpholino-propyl)-6H-pyrazolo[4,3-d]pyrimidin-7-one], the MIC was 32 µg/mL (≈ 70.6 µM) in assay [1]; 8 µg/mL (≈ 17.6 µM) in assay [2]; 32 µg/mL (≈ 70.6 µM) in assay [3]; 8 µg/mL (≈ 17.6 µM) in assay [4]; 8 µg/mL (≈ 17.6 µM) in assay [5]; 16 µg/mL (≈ 35.3 µM) in assay [6]. Also, the MIC in assay [7] was greater than 64 µg/mL. Also, in assay [7], the “MIC E. coli ATCC 25922 + 4 mM EDTA” value is greater than 64 µg/mL.
`O=C(CO)Cn1ncc2nc(NCc3ccc(Cl)c(Cl)c3)[nH]c(=O)c21` [Compound 290, 5-((3,4-dichlorobenzyl)amino)-1-(3-hydroxy-2-oxopropyl)-1H-pyrazolo[4,3-d]pyrimidin-7(6H)-one]: the MIC in assay [1] was determined as 16 µg/mL (≈ 41.9 µM); in assay [2], 8 µg/mL (≈ 20.9 µM); in assay [3], 32 µg/mL (≈ 83.7 µM); in assay [4] it was 16 µg/mL (≈ 41.9 µM); in assay [5], 8 µg/mL (≈ 20.9 µM); in assay [6], 16 µg/mL (≈ 41.9 µM). For the same molecule, the minimal inhibitory concentration (MIC) in assay [7] was greater than 64 µg/mL. For the same molecule, the “MIC E. coli ATCC 25922 + 4 mM EDTA” value in assay [7] is greater than 64 µg/mL.
As to `[2H]C([2H])(Nc1nc2cnn(CCOCCO)c2c(=O)[nH]1)c1ccc(Cl)c(Cl)c1` [Compound 291, 5-[[dideuterio-(3,4-dichlorophenyl)methyl]amino]-1-[2-(2-hydroxyethoxy)ethyl]-6H-pyrazolo[4,3-d]pyrimidin-7-one], the MIC in assay [1] is 16 µg/mL (≈ 40 µM); in assay [2], 4 µg/mL (≈ 9.99 µM); in assay [3], 16 µg/mL (≈ 40 µM); in assay [4] it was 8 µg/mL (≈ 20 µM); in assay [5], 4 µg/mL (≈ 9.99 µM); in assay [6], 16 µg/mL (≈ 40 µM). In addition, the MIC in assay [7] was greater than 64 µg/mL. Also, the “MIC E. coli ATCC 25922 + 4 mM EDTA” value in assay [7] was greater than 64 µg/mL.
For `Cl.N=C(N)NCCn1ncc2nc(NCc3ccc(Cl)c(Cl)c3)[nH]c(=O)c21` [Compound 292, 1-(2-(5-((3,4-dichlorobenzyl)amino)-7-oxo-6,7-dihydro-1H-pyrazolo[4,3-d]pyrimidin-1-yl)ethyl)guanidine hydrochloride], the MIC was 16 µg/mL in assay [1]; 16 µg/mL in assay [2]; 16 µg/mL in assay [3]; 64 µg/mL in assay [4]; 64 µg/mL in assay [5]; 64 µg/mL in assay [6]. In addition, the MIC in assay [7] is greater than 64 µg/mL. In addition, in assay [7], the “MIC E. coli ATCC 25922 + 4 mM EDTA” value is greater than 64 µg/mL.
Turning to `Cl.N=C(N)NCCOCCn1ncc2nc(NCc3ccc(Cl)c(Cl)c3)[nH]c(=O)c21` [Compound 293, 1-(2-(2-(5-((3,4-Dichlorobenzyl)amino)-7-oxo-6,7-dihydro-1H-pyrazolo[4,3-d]pyrimidin-1-yl)ethoxy)ethyl)guanidine hydrochloride], the MIC in assay [1] is 16 µg/mL; in assay [2], 8 µg/mL; in assay [3], 16 µg/mL; in assay [4], 16 µg/mL; in assay [5], greater than 64 µg/mL; in assay [6], 64 µg/mL. Besides, the MIC in assay [7] is greater than 64 µg/mL. In assay [7], the “MIC E. coli ATCC 25922 + 4 mM EDTA” value amounted to 32 µg/mL.
